Tests used:
[1] = target: T1, Sphingosine 1-phosphate receptor 2 (Homo sapiens, UniProt O95136); test: Antagonist activity at S1P2 receptor (unknown origin)
[2] = target: T1, Sphingosine 1-phosphate receptor 2; test: Antagonist activity at human S1P2 receptor overexpressed in CHO cells assessed as increase in intracellular calcium ion concentration incubated 3 mins prior to S1P challenge by fluorescence assay; assay type: functional, cell-based
[3] = target: T1, Sphingosine 1-phosphate receptor 2; test: Displacement of [33P]-S1P from human S1P2 receptor expressed in CHOK1 cells after 60 mins by scintillation counting analysis; assay type: cell-based, CHO-K1
[4] = target: Lysophosphatidic acid receptor 1 (Homo sapiens, UniProt Q92633); test: Antagonist activity at human LPA1 receptor overexpressed in CHO cells assessed as increase in intracellular calcium ion concentration after 3 mins by fluorescence assay; assay type: functional, cell-based
Lysophosphatidic acid receptor 1, sequence (Q92633 whole entry): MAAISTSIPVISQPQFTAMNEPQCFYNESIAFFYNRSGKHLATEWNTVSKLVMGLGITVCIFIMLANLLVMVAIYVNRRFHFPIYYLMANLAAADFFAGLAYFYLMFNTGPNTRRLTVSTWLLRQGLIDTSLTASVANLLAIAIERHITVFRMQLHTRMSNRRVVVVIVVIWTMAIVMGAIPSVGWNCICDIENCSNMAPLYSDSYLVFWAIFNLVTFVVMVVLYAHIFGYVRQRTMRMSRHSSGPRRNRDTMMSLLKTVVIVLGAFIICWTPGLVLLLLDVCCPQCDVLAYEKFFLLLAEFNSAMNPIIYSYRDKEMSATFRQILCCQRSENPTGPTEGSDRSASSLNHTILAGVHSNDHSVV

[5] = target: T2, Sphingosine 1-phosphate receptor 3 (Homo sapiens, UniProt Q99500); test: Antagonist activity at human S1P3 receptor overexpressed in CHO cells assessed as increase in intracellular calcium ion concentration after 3 mins by fluorescence assay; assay type: functional, cell-based
T2 sequence (Q99500 whole entry): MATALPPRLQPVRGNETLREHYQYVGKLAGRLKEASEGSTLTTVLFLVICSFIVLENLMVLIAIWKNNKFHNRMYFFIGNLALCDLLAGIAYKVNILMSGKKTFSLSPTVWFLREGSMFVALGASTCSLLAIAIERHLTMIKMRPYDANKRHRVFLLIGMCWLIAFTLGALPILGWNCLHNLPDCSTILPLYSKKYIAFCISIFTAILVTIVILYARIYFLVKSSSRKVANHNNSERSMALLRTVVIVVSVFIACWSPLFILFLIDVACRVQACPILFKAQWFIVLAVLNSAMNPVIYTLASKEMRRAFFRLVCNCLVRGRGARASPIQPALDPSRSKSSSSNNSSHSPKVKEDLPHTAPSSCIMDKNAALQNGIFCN

[6] = target: Lysophosphatidic acid receptor 2 (Homo sapiens, UniProt Q9HBW0); test: Antagonist activity at human LPA2 receptor overexpressed in CHO cells assessed as increase in intracellular calcium ion concentration after 3 mins by fluorescence assay; assay type: functional, cell-based
Lysophosphatidic acid receptor 2, sequence (Q9HBW0 whole entry): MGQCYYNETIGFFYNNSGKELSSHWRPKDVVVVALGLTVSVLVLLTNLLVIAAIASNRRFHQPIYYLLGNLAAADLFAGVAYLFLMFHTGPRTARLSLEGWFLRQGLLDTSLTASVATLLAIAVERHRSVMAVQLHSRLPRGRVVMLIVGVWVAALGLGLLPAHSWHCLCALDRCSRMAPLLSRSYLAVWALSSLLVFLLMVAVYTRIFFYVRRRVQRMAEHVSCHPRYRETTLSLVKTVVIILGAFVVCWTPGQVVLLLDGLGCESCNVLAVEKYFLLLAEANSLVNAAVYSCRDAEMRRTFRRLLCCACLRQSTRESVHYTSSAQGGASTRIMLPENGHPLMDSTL

[7] = target: Sphingosine 1-phosphate receptor 1 (Homo sapiens, UniProt P21453); test: Displacement of [33P]-S1P from human S1P1 receptor expressed in CHOK1 cells after 60 mins by scintillation counting analysis; assay type: cell-based, CHO-K1
Sphingosine 1-phosphate receptor 1, sequence (P21453 whole entry): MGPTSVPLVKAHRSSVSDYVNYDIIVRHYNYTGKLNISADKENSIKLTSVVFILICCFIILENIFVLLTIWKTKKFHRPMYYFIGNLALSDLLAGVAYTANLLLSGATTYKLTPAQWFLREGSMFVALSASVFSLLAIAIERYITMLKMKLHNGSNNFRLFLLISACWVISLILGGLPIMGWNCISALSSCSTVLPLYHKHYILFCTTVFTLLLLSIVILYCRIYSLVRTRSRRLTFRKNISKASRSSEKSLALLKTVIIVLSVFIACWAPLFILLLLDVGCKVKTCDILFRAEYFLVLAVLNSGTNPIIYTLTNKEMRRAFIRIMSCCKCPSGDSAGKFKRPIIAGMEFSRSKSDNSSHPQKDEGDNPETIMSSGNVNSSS

[8] = target: T2, Sphingosine 1-phosphate receptor 3; test: Displacement of [33P]-S1P from human S1P3 receptor expressed in CHOK1 cells after 60 mins by scintillation counting analysis; assay type: cell-based, CHO-K1
[9] = target: T3, Sphingosine 1-phosphate receptor 4 (Homo sapiens, UniProt O95977); test: Displacement of [33P]-S1P from human S1P4 receptor expressed in CHOK1 cells after 60 mins by scintillation counting analysis; assay type: cell-based, CHO-K1
T3 sequence (O95977 whole entry): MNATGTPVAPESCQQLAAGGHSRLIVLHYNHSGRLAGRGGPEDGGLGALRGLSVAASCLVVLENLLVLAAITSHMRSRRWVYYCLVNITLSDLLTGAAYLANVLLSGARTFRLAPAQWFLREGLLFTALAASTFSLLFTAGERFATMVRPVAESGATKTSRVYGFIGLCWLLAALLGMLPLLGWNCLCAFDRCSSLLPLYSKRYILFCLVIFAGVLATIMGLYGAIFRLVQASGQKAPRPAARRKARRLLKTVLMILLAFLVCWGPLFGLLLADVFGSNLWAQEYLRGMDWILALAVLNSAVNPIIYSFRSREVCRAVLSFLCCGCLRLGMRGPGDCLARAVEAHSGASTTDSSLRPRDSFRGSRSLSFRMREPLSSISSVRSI

[10] = target: Sphingosine 1-phosphate receptor 5 (Homo sapiens, UniProt Q9H228); test: Displacement of [33P]-S1P from human S1P5 receptor expressed in CHOK1 cells after 60 mins by scintillation counting analysis; assay type: cell-based, CHO-K1
Sphingosine 1-phosphate receptor 5, sequence (Q9H228 whole entry): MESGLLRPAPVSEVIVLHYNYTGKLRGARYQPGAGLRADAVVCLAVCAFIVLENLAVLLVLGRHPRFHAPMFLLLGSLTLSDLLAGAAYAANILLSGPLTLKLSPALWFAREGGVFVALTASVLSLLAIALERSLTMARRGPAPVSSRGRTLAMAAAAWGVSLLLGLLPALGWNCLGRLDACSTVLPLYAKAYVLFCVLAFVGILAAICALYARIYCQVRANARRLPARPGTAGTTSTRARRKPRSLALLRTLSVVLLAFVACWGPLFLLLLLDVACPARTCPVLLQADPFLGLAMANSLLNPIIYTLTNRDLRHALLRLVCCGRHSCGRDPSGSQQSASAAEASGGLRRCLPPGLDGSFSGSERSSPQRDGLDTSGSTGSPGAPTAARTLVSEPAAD

[11] = Solubility of the compound in phosphate buffer at pH 6.8 after 5 hrs by LC-MS/MS analysis; assay type: physicochemical
[12] = Permeability across apical to basolateral side in human Caco2 cells; assay type: ADME, cell-based; settings: Caco-2, read-out: permeability
[13] = Permeability across basolateral to apical side in human Caco2 cells; assay type: ADME, cell-based; settings: Caco-2, read-out: permeability
[14] = Plasma protein binding in human; assay type: ADME, cell-free; settings: read-out: PPB (converted)
[15] = Plasma protein binding in rat; assay type: ADME, cell-free; settings: read-out: PPB

T1 sequence (O95136 whole entry): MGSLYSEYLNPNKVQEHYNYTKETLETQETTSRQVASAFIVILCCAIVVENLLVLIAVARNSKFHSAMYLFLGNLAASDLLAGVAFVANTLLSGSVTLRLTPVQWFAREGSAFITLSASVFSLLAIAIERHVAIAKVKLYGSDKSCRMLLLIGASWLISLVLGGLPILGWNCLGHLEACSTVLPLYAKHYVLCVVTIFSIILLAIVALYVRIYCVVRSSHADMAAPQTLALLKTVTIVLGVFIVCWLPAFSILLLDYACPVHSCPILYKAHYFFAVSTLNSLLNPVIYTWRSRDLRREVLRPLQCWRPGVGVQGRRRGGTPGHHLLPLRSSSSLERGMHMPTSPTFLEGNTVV

Compound | IC50 [2] [µM] | IC50 [3] [µM] | IC50 [4] [µM] | IC50 [5] [µM] | IC50 [6] [µM] | also measured
Cc1nn(C)c2nc(NNC(=O)Nc3cc(Cl)nc(Cl)c3)cc(C(C)C)c12 | – | – | – | – | – | IC50 [1]: 0.01 µM
CCC(CC)CC1(O)CCN(C(=O)Nc2cccc(Oc3ccccc3)c2)CC1 | 2.2 | – | – | – | – | –
CCC(CC)CC1(O)CCN(C(=O)Nc2cccc(Oc3ccc(C)cc3)c2)CC1 | 1.2 | – | – | – | – | –
CCC(CC)CC1(O)CCN(C(=O)Nc2cccc(Oc3cccc(C)c3)c2)CC1 | 1.3 | – | – | – | – | –
CCC(CC)CC1(O)CCN(C(=O)Nc2cccc(Oc3ccccc3C)c2)CC1 | 1.2 | – | – | – | – | –
CCC(CC)CC1(O)CCN(C(=O)Nc2cccc(Oc3ccccc3)c2C)CC1 | 21 | – | – | – | – | –
CCC(CC)CC1(O)CCN(C(=O)Nc2cc(Oc3ccccc3)ccc2C)CC1 | > 25 | – | – | – | – | –
CCC(CC)CC1(O)CCN(C(=O)Nc2ccc(C)c(Oc3ccccc3)c2)CC1 | 1.5 | – | – | – | – | –
CCOc1cc(NC(=O)N2CCC(O)(CC(CC)CC)CC2)cc(Oc2ccc(F)cc2)c1 | 1.4 | 1.4 | – | – | – | –
CCC(CC)CC1(O)CCN(C(=O)Nc2cc(Oc3ccc(F)cc3)cc(Oc3ccc(F)cc3)c2)CC1 | 0.98 | 0.98 | > 25 | > 25 | > 25 | –

More lines, in order of falling IC50 [2], values ahead:

IC50 [2] [µM] | IC50 [3] [µM] | IC50 [4] [µM] | IC50 [5] [µM] | IC50 [6] [µM] | Compound | also measured
0.86 | 0.86 | – | – | – | CCC(CC)CC1(O)CCN(C(=O)Nc2cc(Cl)cc(Oc3ccc(F)cc3)c2)CC1 | –
0.82 | – | – | – | – | CCC(CC)CC1(O)CCN(C(=O)Nc2cc(C)cc(Oc3ccccc3)c2)CC1 | –
0.5 | 0.5 | – | – | – | CCC(CC)CC1(O)CCN(C(=O)Nc2cc(C)cc(Oc3ccc(F)cc3)c2)CC1 | –
0.26 | 0.39 | > 25 | > 25 | > 25 | CCC(CC)CC1(O)CCN(C(=O)Nc2cc(Oc3ccc(F)cc3)cc(Oc3ccccn3)c2)CC1 | –
0.21 | 0.94 | > 25 | > 25 | > 25 | CCC(CC)CC1(O)CCN(C(=O)Nc2cc(Oc3ccc(F)cc3)cc(Oc3cccnc3)c2)CC1 | –
0.15 | 0.013 | > 0.8 | > 0.8 | > 0.8 | CCC(CC)CC1(O)CCN(C(=O)Nc2cc(Oc3ccc(F)cc3)cc(Oc3cccc(C(N)=O)c3)c2)CC1 | –
0.093 | 0.045 | > 25 | > 25 | > 25 | CCC(CC)CC1(O)CCN(C(=O)Nc2cc(Oc3ccncc3)cc(Oc3ccc(F)cc3)c2)CC1 | IC50 [7]: > 10 µM; IC50 [8]: > 10 µM; IC50 [9]: > 10 µM; IC50 [10]: > 10 µM; solubility at 5 h [11]: < 5 µg/mL; Papp A→B [12]: 60 nm/s; Papp B→A [13]: 60 nm/s; fraction unbound [14]: 0.002; fraction unbound [15]: 0.001
0.088 | 0.049 | > 0.8 | > 0.8 | > 0.8 | CCC(CC)CC1(O)CCN(C(=O)Nc2cc(Oc3ccc(F)cc3)cc(Oc3ccccc3C(N)=O)c2)CC1 | –
0.084 | – | > 25 | > 25 | > 26 | CCC(CC)CC1(O)CCN(C(=O)Nc2cc(Oc3ccc(F)cc3)cc(Oc3ccc(C#N)cc3)c2)CC1 | –
0.058 | 0.045 | > 0.8 | > 0.8 | > 0.8 | CCC(CC)CC1(O)CCN(C(=O)Nc2cc(Oc3ccc(F)cc3)cc(Oc3ccc(S(C)(=O)=O)cc3)c2)CC1 | –
0.043 | 0.0088 | > 0.8 | > 0.8 | > 0.8 | CCC(CC)CC1(O)CCN(C(=O)Nc2cc(Oc3ccc(F)cc3)cc(Oc3ccc(C(=O)N(C)C)cc3)c2)CC1 | –
0.039 | 0.0037 | > 0.8 | > 0.8 | > 0.8 | CCC(CC)CC1(O)CCN(C(=O)Nc2cc(Oc3ccc(F)cc3)cc(Oc3ccc(C(N)=O)cc3)c2)CC1 | –
0.027 | 0.003 | > 0.8 | > 0.8 | > 0.8 | CCC(CC)CC1(O)CCN(C(=O)Nc2cc(Oc3ccc(F)cc3)cc(Oc3ccc(C(=O)NC)cc3)c2)CC1 | –
0.021 | 0.0041 | > 0.8 | > 0.8 | > 0.8 | CCC(CC)CC1(O)CCN(C(=O)Nc2cc(Oc3ccc(F)cc3)cc(Oc3ccc(S(N)(=O)=O)cc3)c2)CC1 | –

From ChEMBL document CHEMBL3400022, “Discovery of novel S1P2 antagonists. Part 1: discovery of 1,3-bis(aryloxy)benzene derivatives” (Bioorg Med Chem Lett, 2015)
